{"source": "patent US20250320557A1", "about": "“USE OF ABCF1 IN METHODS OF DIAGNOSING AND MONITORING INFLAMMATORY AND/OR AUTOIMMUNE DISEASE” (MYND Life Sciences Inc., priority 2021, published 2025)", "key": {"ABCF1 [1]": {"test_system": "ABCF1", "experiment": "qPCR of ABCF1 transcription in macrophage cell line RAW264.7 (dose response / time course)", "type": "cell-based", "settings": "10 nM, 100 nM, 500 nM, 2 hours, normalized against GAPDH", "procedure": "FIG. 3 illustrates the effect of psylocibin, psylocin and their analogs on ABCF1 transcription in a macrophage cell line. Briefly, the Macrophage cell line RAW264.7 (ATCC) were grown to 80% confluency in growth media (DMEM+ 10% FBS+ glutamine). Dilutions of psylocibin, psylocin and their analogs were made at desired final concentrations for a Dose response experiment. The concentrations' used for this experiment are: 10 nM, 100 nM, 500 nM for Psilocin, Psylocibin, 4-Acetoxy-N, N-dimthyltryptamine, O-Acetyl Psilocin Fumerate, and 4-acetoxyindole. The cells were incubated for 2 hours and then harvested for total RNA, which was extracted for real time RT-PCR specific for ABCF1. Untreated cells were used as negative control and Escitalopram at 0.3 mM was used as a positive control to activate ABCF1 expression for all the experiments. ES=escitalopram; PSYB=Psylocibin; PSIC=Psilocin; DMT=4-Acetoxy-N, N-dimthyltryptamine; APF=O-Acetyl Psilocin Fumerate, and AOI=4-acetoxyindole.\n• 1. Macrophage cell line RAW264.7 (ATCC) were grown to 80% confluency in growth media (DMEM+10% FBS+glutamine). • 2. Dilutions of the drugs were made at desired final concentrations for a Dose response experiment. […]\n• 1. […] Normalized against the expression level of GAPDH, the fold change expression level of ABCF1 was calculated and tabulated for all treatment conditions."}, "ABCF1 [2]": {"test_system": "ABCF1", "experiment": "real time RT-PCR for ABCF1 in RAW macrophages treated with Escitalopram", "type": "cell-based", "settings": "0.3 mM Escitalopram, 1 hour", "procedure": "(§1) FIG. 1 illustrates that Escitalopram induces ABCF1 in a Macrophage cell line: RAW macrophages were plated at 1×10^5 cells/well and cultured for 2 days. The cells were incubated with 0.3 mM Escitalopram for 1 hour, and then harvested for total RNA, which was extracted for real time RT-PCR specific for ABCF1 and IL-4. CT values were normalized with CT value for the housekeeping gene from the DMSO control. The difference in the expression after drug treatment is consistent with polarization towards an M2-like phenotype (data were consistent in 3 separate experiments)."}, "ABCF1 [3]": {"test_system": "ABCF1", "settings": "peripheral blood mononuclear cells of patients responding to treatment; cited from earlier work"}, "IL-4": {"test_system": "IL-4", "experiment": "real time RT-PCR for IL-4 in RAW macrophages treated with Escitalopram", "type": "cell-based", "settings": "macrophage cell line (RAW); 0.3 mM Escitalopram, 1 hour; normalized to housekeeping gene, DMSO control", "procedure": "as §1"}}, "data": [{"smiles": "CN(C)CCc1c[nH]c2cccc(OP(=O)(O)O)c12", "note": "[psylocibin, Psylocibin]", "values": [{"measurement": "effect on ABCF1 transcription", "setting": "ABCF1 [1]", "result": "upregulate ABCF1 transcription"}]}, {"smiles": "CN(C)CCc1c[nH]c2cccc(O)c12", "note": "[psylocin, Psilocin]", "values": [{"measurement": "effect on ABCF1 transcription", "setting": "ABCF1 [1]", "result": "upregulate ABCF1 transcription"}]}, {"smiles": "CN(C)CCC[C@@]1(c2ccc(F)cc2)OCc2cc(C#N)ccc21", "note": "[Escitalopram]", "values": [{"measurement": "ABCF1 induction (in words)", "setting": "ABCF1 [2]; RAW macrophages", "result": "induces ABCF1"}, {"measurement": "induction of ABCF1", "setting": "ABCF1 [2]; macrophage cell line (RAW), normalized to housekeeping gene, DMSO control", "result": "approximately 20 fold"}, {"measurement": "ABCF1 transcription in PBMCs", "setting": "ABCF1 [3]", "result": "increased the transcription of a single gene: ABCF1"}, {"measurement": "induction of IL-4", "setting": "IL-4", "result": "approximately 5 fold"}]}]}
